Results on five compounds are retold here after patent US4260603A, “Sterol glycoside with activity as prostaglandin synthetase inhibitor” (priority 1979, dated 1981).

In general, solubility refers to how much of the substance goes into solution per volume. Read a low solubility as a poorly soluble substance.

Each structure is given as a SMILES string. ≈ marks a conversion by molar mass, not a printed value.

In data set [1] the test system is arthritis of rats caused by erysipeloid (strain T 28). Kind of data set: Erysipeloid arthritis of rats, evaluation of aorta thrombes. The format is in vivo, Male wistar rats. To be noted: 5 mg/kg i.p., 5 times per week from infection day; comparison group 2.80. The source says:
When comparing arthritis based on experimental erysipeloid of for example rats with human rheumatic arthritis an extensive correspondence of the morphological changes can be observed. The tests had been made according to the publication of Schulz et al. Beitr. Path. 154, 1-26, 27-51 (1975). The arthritis of rats caused by erysipeloid can be reproduced with nearly 100 percent effectiveness with a single injection. In case of arthritis caused by erysipeloid always more than 6 joints of the limbs are transformed, namely big and small joints of the limbs in the same manner.
In the test of the compounds the following parameters of the manifestation phase had been used for estimating the activity of the compound.
With rats fibrine-rich thrombes occur about 6th to 11th day of the intima of the aorta. The largest space covered is about 8th day.
Male wistar rats with a body weight of 150 to 180 g were used for the tests. The animals had been kept in single cages and got a rat standard diet (Ssniff R) and water ad libitum.
The infection was carried out with the erysipeloid strain T 28. The dosage was 2 ml s.c. (about 100-200 millions germs). The compounds to be tested had been suspended in sterile saline solution and had been injected i.p. in a dosage of 5 mg/kg body weight. The treatment was 5 times per week from infection day to end of test or death of animal.

Data set [2] in a line: Toxicity on administration over a long period of time. The conditions noted are these: daily doses of 100 to 200 mg/kg of body weight over a long period of time. It counts as in vivo, rate, mice rabbits, dogs and primates.
Data set [3] in a line: Acute toxicity by oral administration. It counts as in vivo, rate, mice rabbits, dogs and primates. To be noted: doses of 1 to 2 grams/kg of body weight.
Data set [4] can be described thus: physchem. The format is physicochemical. To be noted: water. The source says: According to the described process there can also be produced solutions of other sterol disaccharides. […] This solubility is above the preferred individual doses employed of the compounds.

For the compound `C[C@@H]1CC[C@@]2(OC1)O[C@H]1C[C@H]3[C@@H]4CC=C5C[C@@H](O[C@@H]6O[C@H](CO)[C@@H](O)[C@H](O)[C@H]6O)CC[C@]5(C)[C@H]4CC[C@]3(C)[C@H]1[C@@H]2C` [diosgeninglucoside, diosgenin-3-β-D-Glucoside], the “evaluation of aorta thrombes (value)” value in data set [1] is reported as 1.33.
On the same count and under the same terms, under `C[C@@H]1CC[C@@]2(OC1)O[C@H]1C[C@H]3[C@@H]4CC[C@H]5C[C@@H](O[C@@H]6O[C@H](CO)[C@@H](O)[C@H](O)[C@H]6O)CC[C@]5(C)[C@H]4CC(=O)[C@]3(C)[C@H]1[C@@H]2C` [hecogeninglucoside, hecogenin β-D-glucoside] stands 1.38.
On to `CC[C@H](CC[C@@H](C)[C@H]1CC[C@H]2[C@@H]3CC=C4C[C@@H](O[C@@H]5O[C@H](CO)[C@@H](O)[C@H](O)[C@H]5O)CC[C@]4(C)[C@H]3CC[C@]12C)C(C)C` [sitosterol-β-D-glucoside, Sitosterol-β-D-Glucoside], for which, in data set [2], the tolerance entry is listed as “good”. Besides, in data set [1], the “evaluation of aorta thrombes (value)” value is recorded as 2.00. Besides, in data set [3], the acute toxicity result is listed as “no toxic effects”.
In turn, `CC[C@H](CC[C@@H](C)[C@H]1CC[C@H]2[C@@H]3CC=C4C[C@@H](O[C@@H]5O[C@H](CO)[C@@H](O[C@@H]6O[C@H](CO)[C@@H](O)[C@H](O)[C@H]6O)[C@H](O)[C@H]5O)CC[C@]4(C)[C@H]3CC[C@]12C)C(C)C` [β-D-cellobioside of sitosterol] showed a solubility in data set [4] of 750 µg/mL (≈ 1010 µM).
Same read-out and setting: under `CC[C@H](CC[C@@H](C)[C@H]1CC[C@H]2[C@@H]3CC=C4C[C@@H](O[C@@H]5O[C@H](CO)[C@@H](O[C@@H]6O[C@H](CO)[C@H](O)[C@H](O)[C@H]6O)[C@H](O)[C@H]5O)CC[C@]4(C)[C@H]3CC[C@]12C)C(C)C` [β-D-lactoside of sitosterol] stands 210 µg/mL (≈ 284 µM).
